Key:
Format in all cases: cell-based, mouse
[1] = system: Hedgehog Signaling Pathway; assay: Gli-Luc reporter gene cell assay in C3H10T1/2/Gli-Luc cells stimulated with Shh; details: 30 nM Shh, luciferase activity (RLU), read-out: IC50 values of compounds that inhibit Hh pathway
In short: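 IC50 from nonlinear fit of luciferase RLU versus log compound concentration. Stably transfected C3H10T1/2/Gli-Luc cells received a 7-point compound series alongside Shh (30 nM in the added medium) for 24 h at 37 °C in DMEM/10% FBS, then were lysed for luciferase readout.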

[2] = system: Hedgehog Signaling Pathway; assay: SHH-induced differentiation of C3H10T1/2 cells into osteoblastic cells, intracellular alkaline phosphatase activity; details: 10 nM SHH-N, 5 days, alkaline phosphatase activity (OD405), read-out: IC50 values of compounds that inhibit Hh pathway
In short: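 Hedgehog pathway inhibition was taken as loss of SHH-driven osteoblastic differentiation. Test compound (10 nM–10 μM) plus SHH-N (10 nM) was applied to C3H10T1/2 cells for 5 days, then lysate phosphatase turnover was measured as the 30-min OD405 change at 37 °C. IC50 was fitted from activity versus log dose.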

[3] = system: Hedgehog Signaling Pathway; assay: SAG-induced differentiation of C3H10T1/2 cells into osteoblastic cells, intracellular alkaline phosphatase activity; details: 1 μM SAG, 5 days, alkaline phosphatase activity (OD405), read-out: IC50 values of compounds that inhibit Hh pathway
In short: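 Mouse C3H10T1/2 cells were induced with SAG and exposed to compound (10 μM to 1 nM) for 5 days at 37 °C. Cells were lysed in 0.2% Triton, and alkaline phosphatase activity was read as OD405 over 30 min at 37 °C in pH 9.8 substrate buffer. IC50 came from a non-linear fit of background-subtracted OD405 against log concentration.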

[4] = Mus musculus, C3H 10T1/2, 120 h

| Compound | IC50 ([1]; Mus musculus, C3H 10T1/2, 24 h) [nM] | IC50 [2, 4] [nM] | IC50 [3, 4] [nM] | IC50 ([1]; 24 hours) [nM] | IC50 [2] [nM] | IC50 [3] [nM] |
| --- | --- | --- | --- | --- | --- | --- |
| COc1ccc(-c2ccc(C(=O)Nc3ccc(Cl)c(-c4nc5ccccc5[nH]4)c3)c(C)c2)cn1 [Example 66, N-(3-(1H-benzo[d]imidazol-2-yl)-4-chlorophenyl)-2-methyl-4-(6-methoxypyridin-3-yl)benzamide] | 6.1 | 7.1 | 24 | – | – | – |
| Cc1cc(-c2ccc(C(F)(F)F)cc2)ccc1C(=O)Nc1ccc(Cl)c(-c2ncc(-c3cccs3)[nH]2)c1 [Example 68, N-(3-(5-(thiophen-2-yl)-1H-imidazol-2-yl)-4-chlorophenyl)-3-methyl-4′-(trifluoromethyl)biphenyl-4-carboxamide] | 9.9 | 4 | 69 | – | – | – |
| Cc1cc(-c2ccc(C(F)(F)F)cc2)ccc1C(=O)Nc1cnc(Cl)c(-c2nc3ccccc3[nH]2)c1 [Example 69, N-(5-(1H-benzo[d]imidazol-2-yl)-6-chloropyridin-3-yl)-3-methyl-4′-(trifluoromethyl)biphenyl-4-carboxamide] | 4.2 | 0.55 | 33 | – | – | – |
| Cc1cc(-c2ccc(C#N)cc2)ccc1C(=O)Nc1cnc(Cl)c(-c2nc3ccccc3[nH]2)c1 [Example 70, N-(5-(1H-benzo[d]imidazol-2-yl)-6-chloropyridin-3-yl)-3-methyl-4′-cyanobiphenyl-4-carboxamide] | 1.7 | 2.8 | 34 | – | – | – |
| Cc1cc(-c2ccc(C(F)(F)F)cc2)ccc1C(=O)Nc1cnc(C)c(-c2nc3ccccc3[nH]2)c1 [Example 71, N-(5-(1H-benzo[d]imidazol-2-yl)-6-methylpyridin-3-yl)-3-methyl-4′-(trifluoromethyl)biphenyl-4-carboxamide] | 7.1 | 3.6 | 181 | – | – | – |
| Cc1ccc(-c2cnc(-c3cc(NC(=O)c4ccc(-c5ccc(C(F)(F)F)cc5)cc4C)ccc3Cl)[nH]2)cc1 [Example 77, N-(3-(5-p-tolyl-1H-imidazol-2-yl)-4-chlorophenyl)-3-methyl-4′-(trifluoromethyl)biphenyl-4-carboxamide] | 7.1 | 1.9 | 139 | – | – | – |
| Cc1cc(-c2ccc(C(F)(F)F)cc2)ccc1C(=O)Nc1ccc(Cl)c(-c2ncc(-c3ccc(F)cc3)[nH]2)c1 [Example 78, N-(3-(5-(4-fluorophenyl)-1H-imidazol-2-yl)-4-chlorophenyl)-3-methyl-4′-(trifluoromethyl)biphenyl-4-carboxamide] | 15 | 4.8 | 166 | – | – | – |
| Cc1cc(-c2ccc(C(F)(F)F)cc2)ccc1C(=O)Nc1ccc(Cl)c(-c2ncc(-c3ccco3)[nH]2)c1 [Example 79, N-(3-(5-(furan-2-yl)-1H-imidazol-2-yl)-4-chlorophenyl)-3-methyl-4′-(trifluoromethyl)biphenyl-4-carboxamide] | 6.6 | 2.7 | 100 | – | – | – |
| Cc1ccc(-c2cnc(-c3cc(NC(=O)c4ccc(N5C[C@@H](C)O[C@@H](C)C5)cc4C)ccc3Cl)[nH]2)cc1 [Example 80, N-(3-(5-p-tolyl-1H-imidazol-2-yl)-4-chlorophenyl)-2-methyl-4-((2S,6R)-2,6-dimethylmorpholino)benzamide] | 1.8 | 2.7 | 28 | – | – | – |
| Cc1cc(N2C[C@@H](C)N(C)[C@@H](C)C2)ccc1C(=O)Nc1ccc(Cl)c(-c2ncc(-c3cccs3)[nH]2)c1 [Example 81, N-(3-(5-(thiophen-2-yl)-1H-imidazol-2-yl)-4-chlorophenyl)-2-methyl-4-((3S,5R)-3,4,5-trimethylpiperazin-1-yl)benzamide] | 0.15 | 0.16 | 6.4 | – | – | – |
| C[C@@H]1CN(c2ccc(C(=O)Nc3ccc(Cl)c(-c4ncc(-c5cccs5)[nH]4)c3)c(Cl)c2)C[C@H](C)N1C [Example 82, N-(3-(5-(thiophen-2-yl)-1H-imidazol-2-yl)-4-chlorophenyl)-2-chloro-4-((3S,5R)-3,4,5-trimethylpiperazin-1-yl)benzamide] | 0.16 | 0.21 | 12 | – | – | – |
| Cc1cc(N2C[C@@H](C)O[C@@H](C)C2)ccc1C(=O)Nc1cnc(Cl)c(-c2nc3ccccc3[nH]2)c1 [Example 83, N-(5-(1H-benzo[d]imidazol-2-yl)-6-chloropyridin-3-yl)-2-methyl-4-((2S,6R)-2,6-dimethylmorpholino)benzamide] | 6.3 | 9.2 | 43 | – | – | – |
| Cc1nc(N2C[C@@H](C)O[C@@H](C)C2)ccc1C(=O)Nc1cnc(Cl)c(-c2nc3ccccc3[nH]2)c1 [Example 84, N-(5-(1H-benzo[d]imidazol-2-yl)-6-chloropyridin-3-yl)-2-methyl-6-((2S,6R)-2,6-dimethylmorpholino)nicotinamide] | 10 | 7.1 | 44 | – | – | – |
| Cc1cc(N2C[C@@H](C)O[C@@H](C)C2)ncc1C(=O)Nc1cnc(Cl)c(-c2nc3ccccc3[nH]2)c1 [Example 85, N-(5-(1H-benzo[d]imidazol-2-yl)-6-chloropyridin-3-yl)-4-methyl-6-((2S,6R)-2,6-dimethylmorpholino)nicotinamide] | 7.1 | 5.6 | 49 | – | – | – |
| C[C@@H]1CN(c2ccc(C(=O)Nc3cnc(Cl)c(-c4nc5ccccc5[nH]4)c3)cn2)C[C@H](C)N1C [Example 86, N-(5-(1H-benzo[d]imidazol-2-yl)-6-chloropyridin-3-yl)-6-((3S,5R)-3,4,5-trimethylpiperazin-1-yl)nicotinamide] | 0.94 | 1.7 | 40 | – | – | – |
| Cc1cc(N2C[C@@H](C)N(C)[C@@H](C)C2)ccc1C(=O)Nc1cnc(Cl)c(-c2nc3ccccc3[nH]2)c1 [Example 87] | – | – | – | 0.53 | 1.7 | 21 |
| Cc1cc(N2C[C@@H](C)N(C)[C@@H](C)C2)ccc1C(=O)Nc1cnc(C)c(-c2nc3ccccc3[nH]2)c1 [Example 88, N-(5-(1H-benzo[d]imidazol-2-yl)-6-methylpyridin-3-yl)-2-methyl-4-((3S,5R)-3,4,5-trimethylpiperazin-1-yl)benzamide] | 6.7 | 11 | 119 | – | – | – |
| Cc1cc(C(=O)Nc2cnc(C)c(-c3nc4ccccc4[nH]3)c2)ccc1N1C[C@@H](C)N(C)[C@@H](C)C1 [Example 89, N-(5-(1H-benzo[d]imidazol-2-yl)-6-methylpyridin-3-yl)-3-methyl-4-((3S,5R)-3,4,5-trimethylpiperazin-1-yl)benzamide] | 21 | 55 | 381 | – | – | – |
| Cc1ncc(NC(=O)c2ccc(N3C[C@@H](C)N(C)[C@@H](C)C3)nc2)cc1-c1nc2ccccc2[nH]1 [Example 90, N-(5-(1H-benzo[d]imidazol-2-yl)-6-methylpyridin-3-yl)-6-((3S,5R)-3,4,5-trimethylpiperazin-1-yl)nicotinamide] | 25 | 35 | 461 | – | – | – |
| Cc1cc(N2C[C@@H](C)O[C@@H](C)C2)ncc1C(=O)Nc1ccc(Cl)c(-c2nc3ccccc3[nH]2)c1 [Example 91, N-(3-(1H-benzo[d]imidazol-2-yl)-4-chlorophenyl)-4-methyl-6-((2S,6R)-2,6-dimethylmorpholino)nicotinamide] | 7.8 | 6.8 | 52 | – | – | – |

From US10676468B2, “N-(3-heteroarylaryl)-4-arylarylcarboxamides and analogs as hedgehog pathway inhibitors and use thereof” (IMPACT Therapeutics, Inc., priority 2012, dated 2020)
